According to ChEMBL document CHEMBL1201862, “PubChem BioAssay data set” (2004):
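Dose response: 5 concentrations. Exposure: 48 h. Format: 96-well plates. Endpoint: linear interpolation; highest concentration if not reached. Here, GI50 denotes the concentration required for 50% inhibition of growth.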 The source made the active and inactive calls. No stated cut-off is given here; in the data, active = GI50 up to about 1.1 µM and inactive = higher.

Assays:
Experiment in all cases: NCI anticancer screen, dose series, 48 h
786-0 = tested on: 786-0
A549 = tested on: A549
ACHN = tested on: ACHN
COLO 205 = tested on: COLO 205
DU-145 = tested on: DU-145
HCC 2998 = tested on: HCC 2998
HCT-116 = tested on: HCT-116
HCT-15 = tested on: HCT-15
HL-60 = tested on: HL-60
HT-29 = tested on: HT-29
Hs-578T = tested on: Hs-578T
IGROV-1 = tested on: IGROV-1
K562 = tested on: K562
KM12 = tested on: KM12
LOX IMVI = tested on: LOX IMVI
M14 = tested on: M14
MCF7 = tested on: MCF7
MDA-MB-231 = tested on: MDA-MB-231
MDA-MB-435 = tested on: MDA-MB-435
MOLT-4 = tested on: MOLT-4
Malme-3M = tested on: Malme-3M
NCI-H226 = tested on: NCI-H226
NCI-H23 = tested on: NCI-H23
NCI-H460 = tested on: NCI-H460
NCI-H522 = tested on: NCI-H522
NCI/ADR-RES = tested on: NCI/ADR-RES
OVCAR-3 = tested on: OVCAR-3
OVCAR-4 = tested on: OVCAR-4
OVCAR-5 = tested on: OVCAR-5
OVCAR-8 = tested on: OVCAR-8
PC-3 = tested on: PC-3
RPMI-8226 = tested on: RPMI-8226
RXF 393 = tested on: RXF 393
SF-268 = tested on: SF-268
SF-295 = tested on: SF-295
SK-MEL-28 = tested on: SK-MEL-28
SK-MEL-2 = tested on: SK-MEL-2
SK-MEL-5 = tested on: SK-MEL-5
SK-OV-3 = tested on: SK-OV-3
SN12C = tested on: SN12C
SNB-19 = tested on: SNB-19
SNB-75 = tested on: SNB-75
SR = tested on: SR
SW-620 = tested on: SW-620
T47D = tested on: T47D
TK-10 = tested on: TK-10
U-251 = tested on: U-251
UACC-257 = tested on: UACC-257
UACC-62 = tested on: UACC-62
UO-31 = tested on: UO-31
A498 = tested on: A498
CCRF-CEM = tested on: CCRF-CEM
EKVX = tested on: EKVX
HOP-62 = tested on: HOP-62
HOP-92 = tested on: HOP-92
MDA-N = tested on: MDA-N

Question: Which GI50 (786-0) does the source give for `Cc1cc(N(CCCCl)CCCCl)ccc1/C=N/c1cccc(Cl)c1` here?
Answer: Its GI50 is 14.2 µM (inactive).

Question: What about the GI50 (A549) of the same molecule?
Answer: Its GI50 is 12.3 µM (inactive).

Question: And the GI50 (ACHN)?
Answer: Its GI50 is 13.1 µM (inactive).

Question: And the GI50 (COLO 205)?
Answer: The GI50 was 11.5 µM (inactive).

Question: And the GI50 (DU-145)?
Answer: Its GI50 is 14.7 µM (inactive).

Question: And the GI50 (HCC 2998)?
Answer: The GI50 was < 0.01 µM (active).

Question: What about the GI50 (HCT-116) of the same molecule?
Answer: Its GI50 is 25 µM (inactive).

Question: And the GI50 (HCT-15)?
Answer: Its GI50 is 13.6 µM.

Question: What about the GI50 (HL-60) of the same molecule?
Answer: The GI50 was 13 µM (inactive).

Question: And the GI50 (HT-29)?
Answer: The GI50 was 14.6 µM (inactive).

Question: What about the GI50 (Hs-578T) of the same molecule?
Answer: Its GI50 is 14.3 µM (inactive).

Question: And the GI50 (IGROV-1)?
Answer: Its GI50 is 13.2 µM (inactive).

Question: And the GI50 (K562)?
Answer: The GI50 was 7.26 µM (inactive).

Question: What about the GI50 (KM12) of the same molecule?
Answer: Its GI50 is 13.5 µM (inactive).

Question: And the GI50 (LOX IMVI)?
Answer: The GI50 was 13.8 µM (inactive).

Question: And the GI50 (M14)?
Answer: Its GI50 is 18.5 µM (inactive).

Question: And the GI50 (MCF7)?
Answer: The GI50 was 16.2 µM (inactive).

Question: And the GI50 (MDA-MB-231)?
Answer: Its GI50 is 14 µM (inactive).

Question: And the GI50 (MDA-MB-435)?
Answer: The GI50 was 17.7 µM (inactive).

Question: What about the GI50 (MOLT-4) of the same molecule?
Answer: The GI50 was 4.41 µM (inactive).

Question: What about the GI50 (Malme-3M) of the same molecule?
Answer: Its GI50 is 8.79 µM (inactive).

Question: What about the GI50 (NCI-H226) of the same molecule?
Answer: The GI50 was < 0.01 µM (active).

Question: What about the GI50 (NCI-H23) of the same molecule?
Answer: Its GI50 is < 0.01 µM (active).

Question: And the GI50 (NCI-H460)?
Answer: The GI50 was 0.977 µM (active).

Question: And the GI50 (NCI-H522)?
Answer: The GI50 was 17.5 µM (inactive).

Question: What about the GI50 (NCI/ADR-RES) of the same molecule?
Answer: Its GI50 is 14.2 µM (inactive).

Question: And the GI50 (OVCAR-3)?
Answer: Its GI50 is 14.5 µM (inactive).

Question: What about the GI50 (OVCAR-4) of the same molecule?
Answer: The GI50 was 12.4 µM (inactive).

Question: And the GI50 (OVCAR-5)?
Answer: Its GI50 is 1.2 µM (inactive).

Question: And the GI50 (OVCAR-8)?
Answer: Its GI50 is 11.9 µM (inactive).

Question: And the GI50 (PC-3)?
Answer: The GI50 was 12 µM (inactive).

Question: What about the GI50 (RPMI-8226) of the same molecule?
Answer: Its GI50 is < 0.01 µM (active).

Question: And the GI50 (RXF 393)?
Answer: Its GI50 is 11.5 µM (inactive).

Question: And the GI50 (SF-268)?
Answer: Its GI50 is 12.2 µM (inactive).

Question: And the GI50 (SF-295)?
Answer: Its GI50 is 17.6 µM (inactive).

Question: What about the GI50 (SK-MEL-28) of the same molecule?
Answer: Its GI50 is 17.4 µM (inactive).

Question: And the GI50 (SK-MEL-2)?
Answer: The GI50 was 16.4 µM (inactive).

Question: And the GI50 (SK-MEL-5)?
Answer: Its GI50 is 14.4 µM (inactive).

Question: And the GI50 (SK-OV-3)?
Answer: Its GI50 is 19.1 µM (inactive).

Question: What about the GI50 (SN12C) of the same molecule?
Answer: Its GI50 is 16.7 µM (inactive).

Question: And the GI50 (SNB-19)?
Answer: Its GI50 is 15.3 µM (inactive).

Question: What about the GI50 (SNB-75) of the same molecule?
Answer: The GI50 was 12.1 µM (inactive).

Question: What about the GI50 (SR) of the same molecule?
Answer: The GI50 was 11.8 µM (inactive).

Question: And the GI50 (SW-620)?
Answer: Its GI50 is 12.3 µM (inactive).

Question: What about the GI50 (T47D) of the same molecule?
Answer: Its GI50 is 0.45 µM (active).

Question: And the GI50 (TK-10)?
Answer: The GI50 was 10.6 µM (inactive).

Question: And the GI50 (U-251)?
Answer: Its GI50 is 15.7 µM (inactive).

Question: And the GI50 (UACC-257)?
Answer: The GI50 was 0.428 µM (active).

Question: What about the GI50 (UACC-62) of the same molecule?
Answer: The GI50 was 0.74 µM (active).

Question: What about the GI50 (UO-31) of the same molecule?
Answer: The GI50 was 10.5 µM (inactive).

Question: How did the GI50 (786-0) turn out when `C[C@H](c1ccccc1)N1C(=O)[C@@H](OCc2ccccc2)[C@H]1[C@H](COC(=O)COCc1ccccc1)OCc1ccccc1` was run?
Answer: The GI50 was > 100 µM (inactive).

Question: What about the GI50 (A498) of the same molecule?
Answer: Its GI50 is > 100 µM (inactive).

Question: And the GI50 (A549)?
Answer: The GI50 was > 100 µM (inactive).

Question: What about the GI50 (ACHN) of the same molecule?
Answer: The GI50 was > 100 µM (inactive).

Question: What about the GI50 (CCRF-CEM) of the same molecule?
Answer: The GI50 was > 100 µM (inactive).

Question: What about the GI50 (COLO 205) of the same molecule?
Answer: Its GI50 is > 100 µM (inactive).

Question: And the GI50 (DU-145)?
Answer: The GI50 was > 100 µM (inactive).

Question: What about the GI50 (EKVX) of the same molecule?
Answer: Its GI50 is > 100 µM (inactive).

Question: What about the GI50 (HCT-116) of the same molecule?
Answer: The GI50 was > 100 µM (inactive).

Question: And the GI50 (HCT-15)?
Answer: Its GI50 is greater than 100 µM.

Question: What about the GI50 (HOP-62) of the same molecule?
Answer: Its GI50 is > 100 µM (inactive).

Question: And the GI50 (HOP-92)?
Answer: The GI50 was > 100 µM (inactive).

Question: And the GI50 (Hs-578T)?
Answer: The GI50 was 60.7 µM (inactive).

Question: And the GI50 (IGROV-1)?
Answer: The GI50 was > 100 µM (inactive).

Question: What about the GI50 (K562) of the same molecule?
Answer: Its GI50 is > 100 µM (inactive).

Question: What about the GI50 (KM12) of the same molecule?
Answer: The GI50 was > 100 µM (inactive).

Question: What about the GI50 (LOX IMVI) of the same molecule?
Answer: The GI50 was > 100 µM (inactive).

Question: And the GI50 (M14)?
Answer: Its GI50 is > 100 µM (inactive).

Question: What about the GI50 (MCF7) of the same molecule?
Answer: Its GI50 is > 100 µM (inactive).

Question: And the GI50 (MDA-MB-231)?
Answer: The GI50 was > 100 µM (inactive).

Question: What about the GI50 (MDA-MB-435) of the same molecule?
Answer: Its GI50 is 54.1 µM (inactive).

Question: What about the GI50 (MDA-N) of the same molecule?
Answer: The GI50 was > 100 µM (inactive).

Question: What about the GI50 (MOLT-4) of the same molecule?
Answer: Its GI50 is 67.5 µM (inactive).

Question: And the GI50 (Malme-3M)?
Answer: The GI50 was 11.6 µM (inactive).

Question: And the GI50 (NCI-H226)?
Answer: The GI50 was 6.95 µM (inactive).

Question: What about the GI50 (NCI-H23) of the same molecule?
Answer: The GI50 was 57.3 µM (inactive).

Question: What about the GI50 (NCI-H522) of the same molecule?
Answer: Its GI50 is 86.9 µM (inactive).

Question: And the GI50 (OVCAR-3)?
Answer: Its GI50 is > 100 µM (inactive).

Question: What about the GI50 (OVCAR-5) of the same molecule?
Answer: The GI50 was > 100 µM (inactive).

Question: What about the GI50 (PC-3) of the same molecule?
Answer: The GI50 was 77.4 µM (inactive).

Question: What about the GI50 (RPMI-8226) of the same molecule?
Answer: The GI50 was 27.9 µM (inactive).

Question: And the GI50 (SF-268)?
Answer: The GI50 was > 100 µM (inactive).

Question: And the GI50 (SF-295)?
Answer: Its GI50 is > 100 µM (inactive).

Question: What about the GI50 (SK-MEL-28) of the same molecule?
Answer: Its GI50 is > 100 µM (inactive).

Question: What about the GI50 (SK-MEL-2) of the same molecule?
Answer: The GI50 was > 100 µM (inactive).

Question: And the GI50 (SK-MEL-5)?
Answer: Its GI50 is 58.7 µM (inactive).

Question: And the GI50 (SK-OV-3)?
Answer: Its GI50 is > 100 µM (inactive).

Question: And the GI50 (SN12C)?
Answer: Its GI50 is > 100 µM (inactive).

Question: And the GI50 (SNB-19)?
Answer: The GI50 was 37.1 µM (inactive).

Question: What about the GI50 (SNB-75) of the same molecule?
Answer: The GI50 was 9.08 µM (inactive).

Question: What about the GI50 (SR) of the same molecule?
Answer: Its GI50 is > 100 µM (inactive).

Question: And the GI50 (SW-620)?
Answer: Its GI50 is > 100 µM (inactive).

Question: And the GI50 (TK-10)?
Answer: Its GI50 is > 100 µM (inactive).

Question: And the GI50 (U-251)?
Answer: Its GI50 is > 100 µM (inactive).

Question: What about the GI50 (UACC-62) of the same molecule?
Answer: Its GI50 is > 100 µM (inactive).

Question: And the GI50 (UO-31)?
Answer: Its GI50 is 7.69 µM (inactive).
